According to US10202361B2, “Pyridazinones as herbicides” (E I DU PONT DE NEMOURS AND COMPANY, priority 2014, dated 2019):

How the values were obtained:
Assay in all cases: Test E pre-/postemergence greenhouse herbicide test
Assay type in all cases: in vivo
[1] = system: surinam grass (Brachiaria decumbens); conditions: Preemergence, scale 0 to 100
[2] = system: goosegrass (Eleusine indica); conditions: Preemergence, scale 0 to 100
[3] = system: arrowleaf sida (Sida rhombifolia); conditions: scale 0 to 100
Text: (§1) Seeds of plant species selected from corn (Zea mays), soybean (Glycine max), lambsquarters (Chenopodium album), poinsettia, wild (wild poinsettia, Euphorbia heterophylla), pigweed, palmer (palmer pigweed, Amaranthus palmeri), waterhemp (common waterhemp, Amaranthus rudis), surinam grass (Brachiaria decumbens), crabgrass, large (large crabgrass Digitaria sanguinalis), crabgrass, Brazil (Brazilian crabgrass, Digitaria horizontalis), panicum, fall (fall panicum, Panicum dichotomiflorum), foxtail, giant (giant foxtail, Setaria faberii), foxtail, green (green foxtail, Setaria viridis), goosegrass (Eleusine indica), johnsongrass (Sorghum halepense), ragweed (common ragweed, Ambrosia elatior), barnyardgrass (Echinochloa crus-galli), sandbur (southern sandbur, Cenchrus echinatus), arrowleaf sida (Sida rhombifolia), ryegrass, Italian (Italian ryegrass, Lolium multiflorum), dayflower, VA (Virginia dayflower, Commelina virginica), field bindweed (Convolvulus arvensis), cocklebur (common cocklebur, Xanthium strumarium), morningglory (Ipomoea coccinea), nightshade (eastern black nightshade, Solanum ptycanthum), kochia (Kochia scoparia), nutsedge, yellow (yellow nutsedge, Cyperus esculentus), smartweed (ladysthumb smartweed, Polygonum persicaria), velvetleaf (Abutilon theophrasti), and beggarticks (hairy beggarticks, Bidens pilosa), were planted into a silt loam soil and treated preemergence with test chemicals formulated in a non-phytotoxic solvent mixture which included a surfactant.
(§2) At the same time, plants from these crop and weed species and also waterhemp_RES1, (ALS & Triazine resistant common waterhemp, Amaranthus rudis), and waterhemp_RES2, (ALS & HPPD resistant common waterhemp, Amaranthus rudis) were planted in pots containing Redi-Earth® planting medium (Scotts Company, 14111 Scottslawn Road, Marysville, Ohio 43041) comprising spaghnum peat moss, vermiculite, wetting agent and starter nutrients were treated with postemergence applications of test chemicals formulated in the same manner. Plants ranged in height from 2 to 18 cm for postemergence treatments (1- to 4-leaf stage). Treated plants and controls were maintained in a greenhouse for 14 to 21 d, after which time all species were compared to controls and visually evaluated. Plant response ratings, summarized in Table E, are based on a scale of 0 to 100 where 0 is no effect and 100 is complete control. A dash (-) response means no test result.

[4] = system: barnyardgrass (Echinochloa crus-galli); conditions: scale 0 to 100
Text: as §1, §2

[5] = system: beggarticks (hairy beggarticks, Bidens pilosa); conditions: scale 0 to 100
Text: as §1, §2

corn (Zea mays) = conditions: scale 0 to 100
Text: as §1, §2

[6] = system: dayflower, VA (Virginia dayflower, Commelina virginica); conditions: scale 0 to 100
Text: as §1, §2

[7] = system: foxtail, giant (giant foxtail, Setaria faberii); conditions: Preemergence, scale 0 to 100
Text: as §1, §2

How did the “Plant response rating: Surinam Grass” value ([1]; 16 g ai/ha) turn out when `COc1cc(=O)n(-c2ccc(F)cc2)nc1Cc1ccnc(C(F)(F)F)c1` [Compound 17, 2-(4-fluorophenyl)-5-methoxy-6-[[2-(trifluoromethyl)-4-pyridinyl]methyl]-3 (2H)-pyridazinone] was run?
The value was 0.

What about the “Plant response rating: Surinam Grass” value ([1]; 31 g ai/ha) of the same compound?
The value was 20.

And the “Plant response rating: Surinam Grass” value ([1]; 62 g ai/ha)?
Its value is 65.

And the “Plant response rating: Surinam Grass” value ([1]; 125 g ai/ha)?
Its value is 75.

What about the “Plant response rating: Surinam Grass” value ([1]; 250 g ai/ha) of the same compound?
Its value is 75.

What about the “Plant response rating: Goosegrass” value ([2]; 16 g ai/ha) of the same compound?
Its value is 0.

What about the “Plant response rating: Goosegrass” value ([2]; 31 g ai/ha) of the same compound?
Its value is 20.

And the “Plant response rating: Goosegrass” value ([2]; 62 g ai/ha)?
Its value is 60.

What about the “Plant response rating: Goosegrass” value ([2]; 125 g ai/ha) of the same compound?
The value was 95.

And the “Plant response rating: Goosegrass” value ([2]; 250 g ai/ha)?
Its value is 98.

What about the “Plant response rating: Arrowleaf Sida” value ([3]; Postemergence, 16 g ai/ha) of the same compound?
The value was 30.

What about the “Plant response rating: Arrowleaf Sida” value ([3]; Postemergence, 31 g ai/ha) of the same compound?
The value was 40.

And the “Plant response rating: Arrowleaf Sida” value ([3]; Postemergence, 62 g ai/ha)?
Its value is 50.

What about the “Plant response rating: Arrowleaf Sida” value ([3]; Postemergence, 125 g ai/ha) of the same compound?
The value was 50.

And the “Plant response rating: Arrowleaf Sida” value ([3]; Postemergence, 250 g ai/ha)?
Its value is 70.

And the “Plant response rating: Arrowleaf Sida” value ([3]; Preemergence, 16 g ai/ha)?
Its value is 0.

And the “Plant response rating: Arrowleaf Sida” value ([3]; Preemergence, 31 g ai/ha)?
Its value is 0.

And the “Plant response rating: Arrowleaf Sida” value ([3]; Preemergence, 62 g ai/ha)?
Its value is 0.

And the “Plant response rating: Arrowleaf Sida” value ([3]; Preemergence, 125 g ai/ha)?
The value was 0.

And the “Plant response rating: Arrowleaf Sida” value ([3]; Preemergence, 250 g ai/ha)?
The value was 0.

And the “Plant response rating: Barnyardgrass” value ([4]; Postemergence, 16 g ai/ha)?
Its value is 0.

And the “Plant response rating: Barnyardgrass” value ([4]; Postemergence, 31 g ai/ha)?
The value was 10.

And the “Plant response rating: Barnyardgrass” value ([4]; Postemergence, 62 g ai/ha)?
The value was 20.

What about the “Plant response rating: Barnyardgrass” value ([4]; Postemergence, 125 g ai/ha) of the same compound?
The value was 20.

What about the “Plant response rating: Barnyardgrass” value ([4]; Postemergence, 250 g ai/ha) of the same compound?
Its value is 65.

And the “Plant response rating: Barnyardgrass” value ([4]; Preemergence, 16 g ai/ha)?
The value was 0.

What about the “Plant response rating: Barnyardgrass” value ([4]; Preemergence, 31 g ai/ha) of the same compound?
Its value is 20.

And the “Plant response rating: Barnyardgrass” value ([4]; Preemergence, 62 g ai/ha)?
Its value is 35.

What about the “Plant response rating: Barnyardgrass” value ([4]; Preemergence, 125 g ai/ha) of the same compound?
Its value is 80.

What about the “Plant response rating: Barnyardgrass” value ([4]; Preemergence, 250 g ai/ha) of the same compound?
The value was 80.

What about the “Plant response rating: Beggarticks” value ([5]; Postemergence, 16 g ai/ha) of the same compound?
Its value is 20.

And the “Plant response rating: Beggarticks” value ([5]; Postemergence, 31 g ai/ha)?
Its value is 30.

And the “Plant response rating: Beggarticks” value ([5]; Postemergence, 62 g ai/ha)?
Its value is 30.

What about the “Plant response rating: Beggarticks” value ([5]; Postemergence, 125 g ai/ha) of the same compound?
The value was 35.

What about the “Plant response rating: Beggarticks” value ([5]; Postemergence, 250 g ai/ha) of the same compound?
Its value is 55.

What about the “Plant response rating: Beggarticks” value ([5]; Preemergence, 16 g ai/ha) of the same compound?
Its value is 0.

And the “Plant response rating: Beggarticks” value ([5]; Preemergence, 31 g ai/ha)?
Its value is 0.

What about the “Plant response rating: Beggarticks” value ([5]; Preemergence, 62 g ai/ha) of the same compound?
The value was 0.

What about the “Plant response rating: Beggarticks” value ([5]; Preemergence, 125 g ai/ha) of the same compound?
The value was 5.

And the “Plant response rating: Beggarticks” value ([5]; Preemergence, 250 g ai/ha)?
The value was 20.

What about the “Plant response rating: Corn” value (corn (Zea mays); Postemergence, 16 g ai/ha) of the same compound?
Its value is 0.

What about the “Plant response rating: Corn” value (corn (Zea mays); Postemergence, 31 g ai/ha) of the same compound?
The value was 10.

And the “Plant response rating: Corn” value (corn (Zea mays); Postemergence, 62 g ai/ha)?
Its value is 10.

And the “Plant response rating: Corn” value (corn (Zea mays); Postemergence, 125 g ai/ha)?
The value was 35.

What about the “Plant response rating: Corn” value (corn (Zea mays); Postemergence, 250 g ai/ha) of the same compound?
Its value is 65.

What about the “Plant response rating: Corn” value (corn (Zea mays); Preemergence, 16 g ai/ha) of the same compound?
The value was 0.

What about the “Plant response rating: Corn” value (corn (Zea mays); Preemergence, 31 g ai/ha) of the same compound?
The value was 0.

And the “Plant response rating: Corn” value (corn (Zea mays); Preemergence, 62 g ai/ha)?
The value was 30.

And the “Plant response rating: Corn” value (corn (Zea mays); Preemergence, 125 g ai/ha)?
The value was 65.

What about the “Plant response rating: Corn” value (corn (Zea mays); Preemergence, 250 g ai/ha) of the same compound?
The value was 80.

And the “Plant response rating: Dayflower, VA” value ([6]; Postemergence, 16 g ai/ha)?
The value was 10.

What about the “Plant response rating: Dayflower, VA” value ([6]; Postemergence, 31 g ai/ha) of the same compound?
The value was 10.

What about the “Plant response rating: Dayflower, VA” value ([6]; Postemergence, 62 g ai/ha) of the same compound?
The value was 15.

What about the “Plant response rating: Dayflower, VA” value ([6]; Postemergence, 125 g ai/ha) of the same compound?
Its value is 30.

And the “Plant response rating: Dayflower, VA” value ([6]; Postemergence, 250 g ai/ha)?
Its value is 40.

And the “Plant response rating: Dayflower, VA” value ([6]; Preemergence, 16 g ai/ha)?
The value was 0.

What about the “Plant response rating: Dayflower, VA” value ([6]; Preemergence, 31 g ai/ha) of the same compound?
The value was 10.

And the “Plant response rating: Dayflower, VA” value ([6]; Preemergence, 62 g ai/ha)?
Its value is 20.

What about the “Plant response rating: Dayflower, VA” value ([6]; Preemergence, 250 g ai/ha) of the same compound?
The value was 80.

What about the “Plant response rating: Foxtail, Giant” value ([7]; 16 g ai/ha) of the same compound?
Its value is 0.

And the “Plant response rating: Foxtail, Giant” value ([7]; 31 g ai/ha)?
Its value is 40.

What about the “Plant response rating: Foxtail, Giant” value ([7]; 62 g ai/ha) of the same compound?
The value was 65.
